Experimental data reported in ChEMBL document CHEMBL4417629, “Inhibitors of RAD52 Recombination Protein and Methods Using Same” (2018).
Numbering of substitutions follows the chain as printed. Active and inactive are the calls of the source. No cut-off for these calls is given here.

Assays:
[1] = target: T1, DNA repair protein RAD52 homolog (Homo sapiens) (UniProt P43351); assay: Inhibition of RAD52 (unknown origin) assessed as inhibition of DNA pairing using [32P]-ssDNA by measuring D-loop formation incubated for 15 mins by gel electrophoresis method
T1 sequence (whole entry): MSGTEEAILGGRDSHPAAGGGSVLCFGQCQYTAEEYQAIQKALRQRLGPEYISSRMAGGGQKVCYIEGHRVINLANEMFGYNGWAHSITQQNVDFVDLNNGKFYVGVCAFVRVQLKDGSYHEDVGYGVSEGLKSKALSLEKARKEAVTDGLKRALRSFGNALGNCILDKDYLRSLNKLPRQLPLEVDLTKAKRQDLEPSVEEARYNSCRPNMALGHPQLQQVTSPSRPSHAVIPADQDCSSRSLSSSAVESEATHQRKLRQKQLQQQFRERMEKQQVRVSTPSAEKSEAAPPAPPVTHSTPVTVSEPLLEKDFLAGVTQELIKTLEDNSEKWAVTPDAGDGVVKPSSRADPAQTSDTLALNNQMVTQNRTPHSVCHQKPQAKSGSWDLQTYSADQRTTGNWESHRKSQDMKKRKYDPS

[2] = target: T2, DNA repair protein RAD51 homolog 1 (Homo sapiens) (UniProt Q06609); assay: Inhibition of RAD51 (unknown origin) assessed as inhibition of DNA pairing by measuring D-loop formation between [32P]-ssDNA and homologous supercoiled pUC19 DNA at 10 times RAD52 IC50 incubated for 15 mins by gel electrophoresis method relative to control
T2 sequence (whole entry): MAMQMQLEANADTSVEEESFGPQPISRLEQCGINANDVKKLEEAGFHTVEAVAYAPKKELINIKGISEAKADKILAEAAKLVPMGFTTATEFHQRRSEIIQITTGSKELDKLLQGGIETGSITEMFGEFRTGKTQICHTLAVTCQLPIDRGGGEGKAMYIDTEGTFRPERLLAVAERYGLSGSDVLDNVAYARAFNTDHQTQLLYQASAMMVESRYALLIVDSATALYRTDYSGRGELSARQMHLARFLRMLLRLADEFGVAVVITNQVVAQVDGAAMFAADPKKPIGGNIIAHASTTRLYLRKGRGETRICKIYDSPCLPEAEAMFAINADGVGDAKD

[3] = target: T2, DNA repair protein RAD51 homolog 1 (Homo sapiens); assay: Inhibition of RAD51 (unknown origin) assessed as inhibition of DNA pairing by measuring D-loop formation between [32P]-ssDNA and homologous supercoiled pUC19 DNA at 30 uM incubated for 15 mins by gel electrophoresis method relative to control
Homo sapiens [4] = species on record: Homo sapiens; assay: Growth inhibition of BRCA1-deficient human UWB1.289 cells at 2.5 to 10 uM following media refreshment every 3 days and measured on day 10 by CellTiter-Glo assay; assay type: functional
CAPAN-1 = assay: Growth inhibition of BRCA2-deficient human Capan1 cells at 2.5 to 10 uM following media refreshment every 3 days and measured on day 10 by CellTiter-Glo assay; assay type: functional, cell-based
[5] = target: T3, DNA repair protein RAD51 homolog 1 (Mus musculus) (UniProt Q08297); assay: Inhibition of RAD51 in BCR-ABL1-positive and BRCA1-proficient mouse 32Dcl3 cells assessed as reduction in cisplatin-induced RAD51 foci formation by AlexaFluor-594 staining based inverted fluorescence microscopy
T3 sequence (whole entry): T2 sequence (whole entry) with N10S, F46Y, A76T, A194G

[6] = target: T1, DNA repair protein RAD52 homolog (Homo sapiens); assay: Inhibition of RAD52 in human U2OS cells co-expressing SSA-GFP assessed as inhibition of repair of I-Scel-induced double stranded breaks by measuring green fluorescence at 10 uM by flow cytometry (reference value: 7.1%); assay type: cell-based; set-up: scale not given: the % may be the effect or the level left
[7] = target: T4, DNA repair protein RAD52 homolog (Homo sapiens, UniProt P43351); assay: Effect on RAD52 (unknown origin) expressed in BCR-ABL1-positive and BRCA1-deficient mouse 32Dcl3 cells expressing GFP-RAD52 assessed as induction of RAD52 foci formation by AlexaFluor-594 staining based inverted fluorescence microscopy; assay type: cell-based
T4 sequence (P43351 whole entry): T1 sequence (whole entry)

Homo sapiens [8] = species on record: Homo sapiens; assay: Growth inhibition of BRCA1-proficient human CML cells at 2.5 to 10 uM treated with compound on days 0 and 2 and measured on day 4 by trypan blue staining based assay; assay type: functional
[9] = target: T1, DNA repair protein RAD52 homolog (Homo sapiens); assay: Inhibition of RAD52 in human U2OS cells co-expressing SA-GFP assessed as reduction in single strand DNA annealing at 30 uM incubated for 48 hrs by GFP+ positive cells detection based flow cytometry relative to control; assay type: cell-based
U2OS [10] = assay: Effect on homology dependent recombination in human U2OS cells co-expressing DR-GFP at 10 to 30 uM flow cytometry; assay type: functional, cell-based
U2OS [11] = assay: Effect on homology dependent recombination in human U2OS cells co-expressing DR-GFP assessed as measuring green fluorescence at 15 uM flow cytometry (reference value: 7.13%); assay type: functional
[12] = target: T1, DNA repair protein RAD52 homolog (Homo sapiens); assay: Inhibition of RAD52 in human U2OS cells co-expressing SSA-GFP assessed as inhibition of repair of I-Scel-induced double stranded breaks by measuring green fluorescence at 5 uM by flow cytometry (reference value: 7.1%); assay type: cell-based; set-up: scale not given: the % may be the effect or the level left
[13] = target: T5, DNA repair protein RAD51 homolog 1 (Mus musculus, UniProt Q08297); assay: Induction of RAD51 foci formation in BCR-ABL1-positive and BRCA1-proficient mouse 32Dcl3 cells by AlexaFluor-594 staining based inverted fluorescence microscopy
T5 sequence (Q08297 whole entry): T2 sequence (whole entry) with N10S, F46Y, A76T, A194G

[14] = target: T1, DNA repair protein RAD52 homolog (Homo sapiens); assay: (§1) Inhibition of RAD52 (unknown origin) expressed in BCR-ABL1-positive and BRCA1-deficient mouse 32Dcl3 cells expressing GFP-RAD52 assessed as cisplatin-induced RAD52 foci formation at 2.5 uM by AlexaFluor-594 staining based inverted fluorescence microscopy (reference value: 38.7 +/- 10%); assay type: cell-based; set-up: scale not given: the % may be the effect or the level left
Homo sapiens [15] = species on record: Homo sapiens; assay: Growth inhibition of BCR-ABL1-positive and BRCA1-deficient human CML cells at 2.5 to 10 uM treated with compound on days 0 and 2 and measured on day 4 by trypan blue staining based assay; assay type: functional
U2OS [16] = assay: Effect on GFP+ positive cells in human U2OS cells co-expressing pMX-GFP up to 30 uM incubated for 48 hrs by flow cytometry relative to control; assay type: ADME, cell-based
[17] = target: T1, DNA repair protein RAD52 homolog (Homo sapiens); assay: Inhibition of RAD52 in human U2OS cells co-expressing SSA-GFP assessed as inhibition of repair of I-Scel-induced double stranded breaks by measuring green fluorescence at 20 uM by flow cytometry (reference value: 7.1%); assay type: cell-based; set-up: scale not given: the % may be the effect or the level left
U2OS [18] = assay: Effect on homology dependent recombination in human U2OS cells co-expressing DR-GFP assessed as measuring green fluorescence at 10 uM flow cytometry (reference value: 7.13%); assay type: functional
U2OS [19] = assay: Effect on homology dependent recombination in human U2OS cells co-expressing pMX-GFP at 10 to 30 uM by flow cytometry; assay type: functional, cell-based
[20] = target: T1, DNA repair protein RAD52 homolog (Homo sapiens); assay: Inhibition of RAD52 (unknown origin) expressed in BCR-ABL1-positive and BRCA1-deficient mouse 32Dcl3 cells expressing GFP-RAD52 assessed as reduction in cisplatin-induced RAD52 foci formation at 2.5 uM by AlexaFluor-594 staining based inverted fluorescence microscopy relative to control; assay type: cell-based
U2OS [21] = assay: Effect on homology dependent recombination in human U2OS cells co-expressing DR-GFP assessed as measuring green fluorescence at 20 uM flow cytometry (reference value: 7.13%); assay type: functional
U2OS [22] = assay: Effect on homology dependent recombination in human U2OS cells co-expressing DR-GFP assessed as measuring green fluorescence at 5 uM flow cytometry (reference value: 7.13%); assay type: functional
Salmon testes DNA = assay: Binding affinity to salmon sperm DNA incubated for 20 mins by acridine orange displacement based fluorescence polarization assay; assay type: nucleic-acid assay; settings: Salmonidae
[23] = target: T1, DNA repair protein RAD52 homolog (Homo sapiens); assay: Inhibition of RAD52 in human U2OS cells co-expressing SA-GFP assessed as reduction in single strand DNA annealing incubated for 48 hrs by GFP+ positive cells detection based flow cytometry; assay type: cell-based
[24] = target: T1, DNA repair protein RAD52 homolog (Homo sapiens); assay: Inhibition of RAD52 in human U2OS cells co-expressing SSA-GFP assessed as inhibition of repair of I-Scel-induced double stranded breaks by measuring green fluorescence at 15 uM by flow cytometry (reference value: 7.1%); assay type: cell-based; set-up: scale not given: the % may be the effect or the level left
[25] = target: T1, DNA repair protein RAD52 homolog (Homo sapiens); assay: Inhibition of RAD52 in human U2OS cells co-expressing SSA-GFP assessed as inhibition of repair of I-Scel-induced double stranded breaks by measuring green fluorescence at 30 uM by flow cytometry (reference value: 7.1%); assay type: cell-based; set-up: scale not given: the % may be the effect or the level left
U2OS [26] = assay: Effect on homology dependent recombination in human U2OS cells co-expressing DR-GFP assessed as measuring green fluorescence at 30 uM flow cytometry (reference value: 7.13%); assay type: functional
[27] = target: T1, DNA repair protein RAD52 homolog (Homo sapiens); assay: as §1, with “formation by measuring fraction of cell without foci” for “formation”, “48.4” for “38.7”, “6.2%)” for “10%)”; set-up: scale not given: the % may be the effect or the level left

CCN1CCN(CCCNC(=S)Nc2ccc3nc(N(C)CCN)cc(C)c3c2)CC1
inhibition [1]: Dose-dependent effect | inhibition [2]: 111% | inhibition [3]: > 90%

CCCCN(CC)CCCN=C(S)Nc1ccc2nc(N3CCN(C)CC3)cc(C)c2c1
inhibition [1]: Dose-dependent effect | inhibition [2]: 108% | inhibition [3]: > 90%

Cn1nc(-c2ccc(Cl)cc2)c2cc(C(=O)NCCCN3CCCC3)sc21
inhibition [1]: Dose-dependent effect | inhibition [2]: 35.3% | inhibition [3]: > 90%

Cc1c(C(=O)Nc2ccc(S(=O)(=O)N(C)C3CCN(C)CC3)cc2)oc2c(Cl)cccc12
inhibition [1]: Dose-dependent effect | inhibition [2]: 97.5% | inhibition [3]: > 90%

Cc1ccc(C(=O)c2oc3ccc(Cl)cc3c2NC(=O)CN2CCN(C)CC2)cc1
inhibition [1]: Dose-dependent effect | inhibition [2]: 92.5% | inhibition [3]: > 90%

COc1ccc(OC)c(Nc2nc(NCCO)c3ccccc3n2)c1
growth inhibition (GI) (Homo sapiens [4]): Active | inhibition [1]: Dose-dependent effect | inhibition [2]: 75.1% | inhibition [3]: > 90% | growth inhibition (GI) (CAPAN-1): Active

CN1CCN(CCCNC(=O)c2cc3c(-c4ccc(Cl)cc4)nn(C)c3s2)CC1
inhibition [1]: Dose-dependent effect | inhibition [2]: 38.4% | inhibition [3]: > 90%

Cc1ccc(-c2nc(C(=O)NCCCN3CCOCC3)cc3c2[nH]c2ccccc23)cc1
inhibition [1]: Dose-dependent effect | inhibition [2]: 73.6% | inhibition [3]: > 90%

CCN(CC)CCN=C(S)Nc1ccc2nc(N3CCN(C)CC3)cc(C)c2c1
inhibition [5]: inactive | Activity [6]: 6.28% | growth inhibition (GI) (Homo sapiens [4]): Active | Activity [7]: Non-Toxic | inhibition [1]: Dose-dependent effect | growth inhibition (GI) (Homo sapiens [8]): inactive | fold change (FC) [9]: 3.4 | Activity (U2OS [10]): inactive | Activity (U2OS [11]): 5.7% | Activity [12]: 6.54% | Activity [13]: Non-Toxic | Activity [14]: 17% | growth inhibition (GI) (Homo sapiens [15]): Active | Activity (U2OS [16]): Non-Toxic | Activity [17]: 4.94% | Activity (U2OS [18]): 6.68% | inhibition [3]: > 90% | Activity (U2OS [19]): inactive | fold change (FC) [20]: 2 to 2.5 | growth inhibition (GI) (CAPAN-1): Active | Activity (U2OS [21]): 6.2% | Activity (U2OS [22]): 6.98% | Activity (Salmon testes DNA): inactive | inhibition [23]: Dose-dependent effect | Activity [24]: 4.08% | Activity [25]: 2.43% | Activity (U2OS [26]): 5.18% | Activity [27]: 57.6%

CCCN(CCC)CCCNC(=S)Nc1ccc2nc(N3CCN(C)CC3)cc(C)c2c1
inhibition [1]: Dose-dependent effect | inhibition [2]: 111% | inhibition [3]: > 90%

Cc1cc(N2CCN(C)CC2)nc2ccc(NC(S)=NCCCN3CCN(C)CC3)cc12
inhibition [1]: Dose-dependent effect | inhibition [2]: 112% | inhibition [3]: > 90%

COc1ccc(-c2nc(C(=O)NCCCN3CCOCC3)cc3c2[nH]c2ccccc23)cc1OC
inhibition [1]: Dose-dependent effect | inhibition [2]: 93.7% | inhibition [3]: > 90%

CCN(CC)CCCN(Cc1cc2cc3c(cc2nc1O)OCO3)C(S)=NCCCN(C)C
inhibition [1]: Dose-dependent effect | inhibition [2]: 102% | inhibition [3]: > 90%

COc1ccc(OC)c(Nc2nc(NCCCO)c3ccccc3n2)c1
growth inhibition (GI) (Homo sapiens [4]): Active | inhibition [1]: Dose-dependent effect | inhibition [2]: 75.6% | inhibition [3]: > 90% | fold change (FC) [20]: 2 to 2.5 | growth inhibition (GI) (CAPAN-1): Active | Activity (Salmon testes DNA): inactive | Activity [27]: 71.9%

COc1ccccc1Nc1nc(NCCCO)c2ccccc2n1
growth inhibition (GI) (Homo sapiens [4]): Active | inhibition [1]: Dose-dependent effect | inhibition [2]: 89.7% | inhibition [3]: > 90% | growth inhibition (GI) (CAPAN-1): Active

Cn1nc(-c2ccc(Cl)cc2)c2cc(C(=O)NCCCN3CCCCCC3)sc21
growth inhibition (GI) (Homo sapiens [4]): Active | inhibition [1]: Dose-dependent effect | inhibition [2]: 48.6% | inhibition [3]: > 90% | growth inhibition (GI) (CAPAN-1): Active

CCCCN(CC)CCNC(=O)c1cc2c(-c3ccc(Cl)cc3)nn(C)c2s1
growth inhibition (GI) (Homo sapiens [4]): Active | inhibition [1]: Dose-dependent effect | inhibition [2]: 58.6% | inhibition [3]: > 90% | growth inhibition (GI) (CAPAN-1): Active
